Laboratory results: a melting point compilation (Tetko et al.; mined from patent text by program, amines drawn as free bases though some values may be those of a salt)

**Q.** Which melting point does the source give for `CCn1c(Oc2cccc(N3CCNCC3)c2)nnc1[C@@H](C)NS(=O)(=O)c1ccc(Cl)c(Cl)c1` here?
**A.** 175 to 178 °C

**Q.** Which melting point does the source give for `CSc1nnc(CNc2c(C)csc2C)n1C` here?
**A.** 92 to 96 °C

**Q.** For `COc1cc(N)ccc1OC[C@H](O)C1CC1`, which melting point is on record?
**A.** 71 °C

**Q.** With `C=CCN1C2CCC3C1CCC2N3C(c1ccc(C(=O)N2CCCCC2)cc1)c1cccc(O)c1` (stereo not given) as the compound, how does the melting point read?
**A.** 70 to 73 °C

**Q.** With `CCCn1c(COCC)nc2c(N)nc3cc(OC4CCN(S(C)(=O)=O)CC4)ccc3c21` as the compound, how does the melting point read?
**A.** 215 to 217 °C

**Q.** With `CN(C)c1ccc(C2OC(C)(C)N=C2c2cccc(Cl)c2)cc1` (stereo not given) as the compound, how does the melting point read?
**A.** 96 to 97 °C

**Q.** For `CC1C(=O)NCC1C(N)=O` (stereo not given), which melting point is on record?
**A.** 169 to 171 °C

**Q.** For `COc1cc(C(O)c2ccnn2C)c(Cl)c(Cl)c1OC` (stereo not given), which melting point is on record?
**A.** 149 to 154 °C

**Q.** Which melting point does the source give for `Cc1cc2c(s1)CCCC1CC(=O)N(c3ccc(Cl)cc3)N=C21` (stereo not given) here?
**A.** 119 to 121 °C

**Q.** With `CCCCc1nc2ccccc2n1Cc1ccc(-c2ccccc2C2SC(=O)NC2=O)cc1` (stereo not given) as the compound, how does the melting point read?
**A.** 162 to 163 °C

**Q.** Which melting point does the source give for `O=C1NC(=O)C(=Cc2ccc(OC3CCN(C(=O)OCC4c5ccccc5-c5ccccc54)CC3)cc2)S1` here?
**A.** 185 °C

**Q.** With `CC(C)(C)OC(=O)N[C@@H](COS(C)(=O)=O)c1ccccc1` as the compound, how does the melting point read?
**A.** 108 to 109 °C

**Q.** For `Cc1c(C)c(N2CCN(c3ccc(C(C)O)cc3)CC2)c(C)c2c1OC(C)(C)C2` (stereo not given), which melting point is on record?
**A.** 133 to 136 °C

**Q.** With `CC1(C)OC(=O)Nc2ccc(-c3ccc(Cl)cc3)cc21` as the compound, how does the melting point read?
**A.** 255 to 257 °C

**Q.** With `CC(C)n1c(=O)n(C(N)=O)c2ccccc21` as the compound, how does the melting point read?
**A.** 195 to 196 °C

**Q.** For `Cc1c(C)c(N2CCN(Cc3ccccc3)CC2)c(C)c2c1OC(C)(C)C2c1ccc(F)nc1` (stereo not given), which melting point is on record?
**A.** 76 to 79 °C

**Q.** With `c1cncc(CNC2=Nc3ccccc3Nc3ccccc32)c1` as the compound, how does the melting point read?
**A.** 150 to 152 °C

**Q.** With `COCCOC(=O)c1c(F)cccc1S(=O)(=O)NC(=O)Nc1nc(OC)nc(OC)n1` as the compound, how does the melting point read?
**A.** 179 to 182 °C

**Q.** With `O=C(O)CC(CC(=O)Nc1cc(O)c(Cl)cc1F)C(F)(F)F` (stereo not given) as the compound, how does the melting point read?
**A.** 171 to 174 °C

**Q.** With `CSCC1COCc2nc3c(N)nc4ccccc4c3n21` (stereo not given) as the compound, how does the melting point read?
**A.** 105 to 108 °C

**Q.** With `CCN(CC)N(C(C)=O)c1nc2cc3nc(N(C(C)=O)N4CCCCC4)sc3cc2s1` as the compound, how does the melting point read?
**A.** 280 to 282 °C

**Q.** For `CN1CCC(C2Cc3c(O)cccc3C(=O)N2)CC1` (stereo not given), which melting point is on record?
**A.** 216 to 218 °C

**Q.** For `CN(C)CCCn1c(=O)c(C#N)c(N2CCN(C(=O)c3cccs3)CC2)c2cccnc21`, which melting point is on record?
**A.** 176 °C

**Q.** With `CCCc1nc(C(O)C(C)(C)C)c(C(N)=O)n1Cc1ccc(-c2ccccc2C(=O)C(=O)O)cc1` (stereo not given) as the compound, how does the melting point read?
**A.** 128 to 130 °C

**Q.** Which melting point does the source give for `COc1ccc(-c2cc(=Nc3c(C)cc(C)cc3C)n(C)c(SC)n2)cc1OC` here?
**A.** 172 to 173 °C

**Q.** Which melting point does the source give for `CCC1(CC)COC(c2cccc(NC(=O)NC)c2)OC1` here?
**A.** 112 to 125 °C

**Q.** Which melting point does the source give for `Nc1ccn(C2CCCCC2)c(=O)n1` here?
**A.** 213 to 231 °C

**Q.** With `CC(=O)N1CCC(C)(C)c2cccc(CCCN3CCN(c4nsc5ccccc45)CC3)c21` as the compound, how does the melting point read?
**A.** 109 °C

**Q.** For `CCOC(=O)c1cn(N)c2c(F)c(F)c(F)cc2c1=O`, which melting point is on record?
**A.** 217 °C

**Q.** Which melting point does the source give for `CCCCOCC(O)COc1ccc(-c2nc(-c3ccc(OCC(O)COCCCC)cc3O)nc(-c3c(C)cc(C)cc3C)n2)c(O)c1` (stereo not given) here?
**A.** 125 to 131 °C

**Q.** With `CCOC(=N)C1(O)CCCc2ccccc21` (stereo not given) as the compound, how does the melting point read?
**A.** 84 to 86 °C

**Q.** For `CCOC(=O)NC=Cc1ccc(OCC(O)CNC(C)(C)C)cc1` (stereo not given), which melting point is on record?
**A.** 99 to 100 °C

**Q.** With `CSc1ccc(C(=O)C(C)CC(=O)O)cc1` (stereo not given) as the compound, how does the melting point read?
**A.** 69 to 71 °C

**Q.** With `O=CCCc1cc(F)c2ncc(C(=O)NCc3ccc(Cl)cc3)c(O)c2c1` as the compound, how does the melting point read?
**A.** 242 to 244 °C

**Q.** With `O=C(CCl)NC(C(=O)O)c1ccc2c(c1)CCS2` (stereo not given) as the compound, how does the melting point read?
**A.** 173 to 175 °C

**Q.** With `CCOP(=O)(OCC)C(Nc1cnccn1)P(=O)(OCC)OCC` as the compound, how does the melting point read?
**A.** 56 to 59 °C

**Q.** Which melting point does the source give for `Cc1c(C)c(N2CCN(c3nc(-c4ccccc4)ns3)CC2)c(C)c2c1OC(C)(C)C2` here?
**A.** 204 to 205 °C

**Q.** For `CC(=O)OC1N=C(c2ccccc2)c2cc(Cl)ccc2-n2c1cnc2C` (stereo not given), which melting point is on record?
**A.** 200 to 201 °C

**Q.** With `C/C(=C\c1ccc(C(=O)O)cc1)c1ccc2c(c1)OCCO2` as the compound, how does the melting point read?
**A.** 172 to 173 °C

**Q.** Which melting point does the source give for `COc1ccc(-c2cc(OCc3ccccc3)c(=O)n(C)c2-c2ccncc2)cc1` here?
**A.** 127 to 130 °C
